Measurements as given in patent US20250017885A1, “TREATMENT OF INCLUSION BODY MYOSITIS WITH PHENYLBUTYRATE AND MONITORING OF TREATMENT” (University of Kansas, priority 2023, published 2025).
“Also recorded” adds a separate entry of the source. Where two headings read alike, the source gives them in different places.

What was measured:
[1] = tested on: cultured human muscle fibers; conditions: Nogalska et al. 2014, cited from earlier work; for Aβ42 and Aβ42 oligomers / Lysosomal dysfunction / lysosomal activity / Muscle-fiber vacuolization / γ-secretase activity: cultured human muscle fibers with experimentally-impaired autophagy
[2] = tested on: Annexin, MitoSox, TMRE, TDP-43; assay: Exploratory biomarkers: Annexin, MitoSox, TMRE, TDP-43; type: in vivo, human; conditions: FIGS. 7A-7B, 8A-8B, 9A-9B, 10A-10B
Excerpt: (§1) Safety and tolerability of PBA in IBM patients were studied, with a run-in period of 3 months without medication. Biomarkers were studied. […] We have previously assayed TDP-43 and its derivative, phosphorylated TDP-43 (pTDP-43) in peripheral blood platelets in our laboratory (Dr. Agbas). TDP43 positive cytoplasmic aggregates have been described in ALS motor neurons and IBM skeletal muscle tissue with significant up-regulation of TARDBP (the gene expresses TDP-43 protein) and SQTM1 (Sequestosome-1) gene expression.14 Therefore, we planned to measure blood-derived platelet total TDP-43 and pTDP-43 as surrogate biomarker for skeletal muscle TDP-43 profile of IBM patients.

[3] = tested on: mitochondrial membrane potential; assay: MitoTracker biomarker (overall mitochondrial mass / mitochondrial membrane potential) in IBM patients treated with PBA; type: in vivo, human
Excerpt: The mitochondrial tracker used to track treatment of IBM with PBA can include MitoTracker dyes that are cationic fluorophores that accumulate electrophoretically into mitochondria in response to the highly negative mitochondrial membrane potential. […] Thus, mitochondria retain MitoTracker dyes like MitoTracker Orange CMTMRos after loss of their membrane potential. Sec, Kholmukhamedov A, Schwartz J M, Lemasters J J. Isolated mitochondria infusion mitigates ischemia-reperfusion injury of the liver in rats: mitotracker probes and mitochondrial membrane potential. Shock. 2013 June; 39(6):543. doi:10.1097/SHK.0b013e318292300d. PMID: 23680774; PMCID: PMC3759289.
as §1
The trend observed in the boxplots of MitoTracker data warranted further exploration with a post hoc analysis. A generalized linear mixed model was used to estimate mean values of MitoTracker at each timepoint. 10 of 11 subjects had measurements at all 3 timepoints. Time was used as a categorical value and correlation among an individual's repeated measurements was accounted for with a random effect for subject. The fixed effect, month, was not statistically significant (p=0.0724). […] The results from the model are exploratory.
For the secondary outcomes, the measurements at baseline, month-3, and month-7 would be reported using mean and standard deviation (or median and interquartile range for skewed measurements) along with a corresponding 95% confidence interval. These measurements would be visually compared using box plots to detect the presence of a trend over time by drawing a trend line on the means (or median). Due to the small sample size, this comparison would be done visually, and no formal statistical test would be done routinely but it would be considered to further study a trend.

[4] = tested on: patients with inclusion body myositis; assay: Secondary outcome measures: strength and functional measures (manual muscle testing, TUG, IBMFRS, grip strength); type: in vivo, human
Excerpt: Primary outcome measures included adverse event reporting. Secondary outcome measures included multiple strength and functional measures: manual muscle testing, timed up and go test (TUG), IBM functional rating scale (IBMFRS), and grip strength. These clinical outcome measures were commonly used in evaluating progression of IBM and in clinical trials of this disease.^18,19,20,21 In addition, safety laboratory tests and electrocardiogram would be monitored regularly. As mentioned above, the biomarkers would be repeated at the end of the treatment period. For the secondary outcomes, the measurements at baseline, month-3, and month-7 would be reported using mean and standard deviation (or median and interquartile range for skewed measurements) along with a corresponding 95% confidence interval. These measurements would be visually compared using box plots to detect the presence of a trend over time by drawing a trend line on the means (or median). Due to the small sample size, this comparison would be done visually, and no formal statistical test would be done routinely but it would be considered to further study a trend.

[5] = tested on: patients with inclusion body myositis; assay: Safety and tolerability of PBA in IBM patients (adverse event reporting, safety laboratory tests); type: in vivo, human; conditions: for Serious events not related to the study drug / Serious adverse events related to the study drug / Safety and tolerability / Safety laboratory tests (ALT, creatinine, creatine kinase, blood counts): IBM patients; for Serious adverse events related to the study drug: 3 gm twice daily for 3 months; for Safety and tolerability: 3 gm twice daily orally for 3 months; for Safety laboratory tests (ALT, creatinine, creatine kinase, blood counts): two subjects had mildly elevated liver enzymes at baseline
Experimental: In a study, PBA at a dose of 3 grams (gm) was administered twice daily in patients with inclusion body myositis. In this study, 10 patients received the daily doses of PBA for 3 months after run-up periods of 3 months. […] The study was conducted by monitoring biomarkers and biological indicators in the subjects. One of the biological indicators is mitochondrial membrane potential, and analyzing the biological indicator uses a mitochondrial tracker (e.g., MitoTracker) to monitor mitochondrial membrane potential. […] As such, the biomarkers, including a mitochondrial tracker, allow for monitoring the progress of treatment of IBM in the subject with PBA. Thus, the present invention can use PBA in human subjects to treat inclusion body myositis with a dose of 3 gm twice daily and monitoring biological indicators or other biomarkers to monitor progress of IBM in the subject. Safety and tolerability of PBA in IBM patients were studied, with a run-in period of 3 months without medication. Biomarkers were studied. […] We have previously assayed TDP-43 and its derivative, phosphorylated TDP-43 (pTDP-43) in peripheral blood platelets in our laboratory (Dr. Agbas). TDP43 positive cytoplasmic aggregates have been described in ALS motor neurons and IBM skeletal muscle tissue with significant up-regulation of TARDBP (the gene expresses TDP-43 protein) and SQTM1 (Sequestosome-1) gene expression.14 Therefore, we planned to measure blood-derived platelet total TDP-43 and pTDP-43 as surrogate biomarker for skeletal muscle TDP-43 profile of IBM patients. […] Secondary outcome measures included multiple strength and functional measures: manual muscle testing, timed up and go test (TUG), IBM functional rating scale (IBMFRS), and grip strength. These clinical outcome measures were commonly used in evaluating progression of IBM and in clinical trials of this disease.^18,19,20,21 In addition, safety laboratory tests and electrocardiogram would be monitored regularly. As mentioned above, the biomarkers would be repeated at the end of the treatment period. The PBA was administered orally at 3 gm doses twice a day. […] Mildly elevated liver enzyme reported in two subjects at baseline and before the treatment period. The most common adverse events which were considered related were GI symptoms (n=9). […] The safety lab tests for monitoring purposes include: Liver enzyme (ALT), renal function test (creatinine), muscle enzyme (creatine kinase) and blood counts (including WBC and platelets). For the primary outcome of safety, the frequency of Adverse Events (AEs) and Serious Adverse Events (SAEs) by grade, would be reported. This would be done for each follow-up visit as well as for all visits combined.

[6] = lysosomal activity-inhibited CHMFs
[7] = AE considered possibly or probably related, 3 gm orally twice a day, 3 months
[8] = AE considered unrelated, at baseline before the treatment period
[9] = gastrointestinal AE considered possibly or probably related, 3 gm orally twice a day, 3 months

O=C([O-])CCCc1ccccc1.[Na+] [NaPBA, Sodium phenylbutyrate]
Aβ42 and Aβ42 oligomers [1]: decreased Aβ42 and its oligomers | Lysosomal dysfunction / lysosomal activity [1]: improved lysosomal activity | Muscle-fiber vacuolization [1]: virtually prevented muscle-fiber vacuolization | γ-secretase activity [1]: decreased γ-secretase activity | Lysosomal dysfunction / lysosomal activity ([1]; listed as NaPB): reverses lysosomal dysfunction

phenylbutyrate [PBA]
Change in exploratory biomarkers (Annexin, MitoSox, TMRE, TDP-43) [2]: no meaningful change in most exploratory biomarkers | MitoTracker median ([3]; at the end of the treatment period, 19299 at the baseline, 28823 at the beginning of the treatment period): 8010 | MitoTracker estimated coefficient (95% CI), Month 6 ([3]; generalized linear mixed model, Month 3 reference, p 0.0385): −21,344 (−41,402, −1,287) | MitoTracker estimated coefficient (95% CI), On treatment - Off treatment ([3]; generalized linear mixed model, after treatment vs months 0 and 3 combined): 20,780 (3,091, 38,469) | MitoTracker (mitochondrial mass) change with treatment ([3]; treatment period vs run-in period): statistically significant change in the mitochondria; also recorded: changes with treatment with PBA; also recorded: statistically significant change in MitoTracker (mitochondrial mass); also recorded: dropped at the end of the treatment period; also recorded: statistically significantly different from pre-treatment; also recorded: significant drop with treatment | Aβ42 and Aβ42 oligomers [1]: decreases Aβ42 and Aβ42 oligomers | Muscle-fiber vacuolization [1]: decreasing their vacuolization | γ-secretase activity [1]: decreases γ-secretase activity | Cathepsins D and B activities [1, 6]: increased cathepsins D and B activities | NBR1, p62 and LC3-II [1, 6]: decrease of NBR1, p62 and LC3-II | IBMFRS change during the study ([4]; 3 months run-in, 3 months treatment): did not seem to change during the study | IBMFRS median ([4]; at the end of the treatment period, median 23 at baseline, 24 at the beginning of the treatment period): 23 | Strength evaluation of 24 muscles with accumulative total score, change ([4]; in vivo): No meaningful change | TUG (seconds) over the duration of the treatment, change ([4]; in vivo): No meaningful change | Change in all clinical and most biological outcome measures ([4]; short duration, small sample size): no meaningful changes in all clinical and most biological outcome measures | Number of occurrences: Drowsiness [5, 7]: 1 | Number of occurrences: Gastrointestinal AEs [5, 7]: 9 | Number of occurrences: Hair Loss [5, 7]: 1 | Number of occurrences: Musculoskeletal Pain [5, 7]: 2 | Number of occurrences: Nasal Congestion [5, 7]: 1 | Number of occurrences: Tremor [5, 7]: 1 | Number of occurrences: Two Itchy Skin Lesions [5, 7]: 1 | Number of subjects: Drowsiness [5, 7]: 1 | Number of subjects: Gastrointestinal AEs [5, 7]: 9 | Number of subjects: Hair Loss [5, 7]: 1 | Number of subjects: Musculoskeletal Pain [5, 7]: 2 | Number of subjects: Nasal Congestion [5, 7]: 1 | Number of subjects: Tremor [5, 7]: 1 | Number of subjects: Two Itchy Skin Lesions [5, 7]: 1 | Number of subjects: Hair Loss ([5]; AE considered possibly or probably related, 3 gm orally twice a day, 3 months, listed as study drug): One subject had hair loss which was considered possibly related | Number of occurrences: Back Pain ([5]; AE considered unrelated): 1 | Number of occurrences: Chills ([5]; AE considered unrelated): 1 | Number of occurrences: Elevated White Blood Count ([5]; AE considered unrelated): 1 | Number of occurrences: Elevated blood pressure ([5]; AE considered unrelated): 2 | Number of occurrences: Falls ([5]; AE considered unrelated): 9 | Number of occurrences: Headache ([5]; AE considered unrelated): 1 | Number of occurrences: Low blood pressure ([5]; AE considered unrelated): 1 | Number of occurrences: Numbness in the Legs ([5]; AE considered unrelated): 1 | Number of occurrences: Right Bundle Branch Block ([5]; AE considered unrelated): 1 | Number of occurrences: Urinary Urgency ([5]; AE considered unrelated): 2 | Number of subjects: Back Pain ([5]; AE considered unrelated): 1 | Number of subjects: Chills ([5]; AE considered unrelated): 1 | Number of subjects: Elevated White Blood Count ([5]; AE considered unrelated): 1 | Number of subjects: Elevated blood pressure ([5]; AE considered unrelated): 2 | Number of subjects: Falls ([5]; AE considered unrelated): 6 | Number of subjects: Headache ([5]; AE considered unrelated): 1 | Number of subjects: Low blood pressure ([5]; AE considered unrelated): 1 | Number of subjects: Numbness in the Legs ([5]; AE considered unrelated): 1 | Number of subjects: Right Bundle Branch Block ([5]; AE considered unrelated): 1 | Number of subjects: Urinary Urgency ([5]; AE considered unrelated): 2 | Number of occurrences: Elevated liver enzymes [5, 8]: 2 | Number of subjects: Elevated liver enzymes [5, 8]: 2 | Serious events not related to the study drug [5]: the only serious event reported (a fall) was related to the disease itself, not the study drug | Serious adverse events related to the study drug [5]: no serious adverse events related to the study drug were reported | Serious adverse events related to the study drug ([5]; listed as study drug): No study drug-related serious events were reported | Safety and tolerability [5]: safe and well-tolerated | Safety and tolerability ([5]; listed as Phenylbutyrate): safe and well tolerated | Safety and tolerability ([5]; listed as study drug): well tolerated | Serious events not related to the study drug ([5]; listed as study drug): one serious event (a fall that required a hospital visit) that was not related to the study drug | Safety laboratory tests (ALT, creatinine, creatine kinase, blood counts) [5]: indicates safety for the PBA administration | Safety laboratory tests (ALT, creatinine, creatine kinase, blood counts) ([5]; listed as study drug): No other significant laboratory changes were noted | Number of occurrences: Constipation [5, 9]: 1 | Number of occurrences: Heartburn [5, 9]: 4 | Number of occurrences: Nausea [5, 9]: 2 | Number of occurrences: Oral Aphthous [5, 9]: 1 | Number of occurrences: Urgency [5, 9]: 1 | Number of subjects: Constipation [5, 9]: 1 | Number of subjects: Heartburn [5, 9]: 4 | Number of subjects: Nausea [5, 9]: 2 | Number of subjects: Oral Aphthous [5, 9]: 1 | Number of subjects: Urgency [5, 9]: 1 | Number of occurrences: Strep. Throat Infection ([5]; human, in vivo): 1 | Number of subjects: Strep. Throat Infection ([5]; human, in vivo): 1
